According to the NIST ThermoML archive (doi:10.1021/je200721d):
± gives the expanded uncertainty stated by the source.

Experiment: xn = mol fraction of the nth substance listed
Details: Liquid, Vibrating tube method

CCCCCCCCCC [decane] + CCCCCC
mass density (362.91 K, 7000 kPa, x2 = 0.0456): 681.43 ± 0.31 kg/m3 | mass density (362.91 K, 8000 kPa, x2 = 0.0456): 682.51 ± 0.31 kg/m3 | mass density (362.91 K, 9000 kPa, x2 = 0.0456): 683.59 ± 0.32 kg/m3 | mass density (362.91 K, 10000 kPa, x2 = 0.0456): 684.65 ± 0.33 kg/m3 | mass density (362.91 K, 11000 kPa, x2 = 0.0456): 685.7 ± 0.34 kg/m3 | mass density (362.91 K, 12000 kPa, x2 = 0.0456): 686.71 ± 0.35 kg/m3 | mass density (362.91 K, 13000 kPa, x2 = 0.0456): 687.73 ± 0.35 kg/m3 | mass density (362.91 K, 14000 kPa, x2 = 0.0456): 688.73 ± 0.36 kg/m3 | mass density (362.91 K, 15000 kPa, x2 = 0.0456): 689.71 ± 0.37 kg/m3 | mass density (362.91 K, 16000 kPa, x2 = 0.0456): 690.69 ± 0.38 kg/m3 | mass density (362.91 K, 17000 kPa, x2 = 0.0456): 691.65 ± 0.39 kg/m3 | mass density (362.91 K, 18000 kPa, x2 = 0.0456): 692.61 ± 0.4 kg/m3 | mass density (362.91 K, 19000 kPa, x2 = 0.0456): 693.55 ± 0.41 kg/m3 | mass density (362.91 K, 20000 kPa, x2 = 0.0456): 694.48 ± 0.41 kg/m3 | mass density (362.91 K, 21000 kPa, x2 = 0.0456): 695.43 ± 0.42 kg/m3 | mass density (362.91 K, 22000 kPa, x2 = 0.0456): 696.32 ± 0.43 kg/m3 | mass density (362.91 K, 23000 kPa, x2 = 0.0456): 697.22 ± 0.44 kg/m3 | mass density (362.91 K, 24000 kPa, x2 = 0.0456): 698.09 ± 0.45 kg/m3 | mass density (362.91 K, 25000 kPa, x2 = 0.0456): 698.96 ± 0.46 kg/m3 | mass density (362.93 K, 1000 kPa, x2 = 0.7524): 623.36 ± 0.28 kg/m3 | mass density (362.93 K, 2000 kPa, x2 = 0.7524): 624.97 ± 0.29 kg/m3 | mass density (362.93 K, 3000 kPa, x2 = 0.7524): 626.55 ± 0.3 kg/m3 | mass density (362.93 K, 4000 kPa, x2 = 0.7524): 628.12 ± 0.31 kg/m3 | mass density (362.93 K, 5000 kPa, x2 = 0.7524): 629.63 ± 0.32 kg/m3 | mass density (362.93 K, 6000 kPa, x2 = 0.7524): 631.14 ± 0.32 kg/m3 | mass density (362.93 K, 7000 kPa, x2 = 0.7524): 632.58 ± 0.33 kg/m3 | mass density (362.93 K, 8000 kPa, x2 = 0.7524): 634.03 ± 0.34 kg/m3 | mass density (362.93 K, 9000 kPa, x2 = 0.7524): 635.42 ± 0.35 kg/m3 | mass density (362.93 K, 10000 kPa, x2 = 0.7524): 636.78 ± 0.36 kg/m3 | mass density (362.93 K, 11000 kPa, x2 = 0.7524): 638.11 ± 0.37 kg/m3 | mass density (362.93 K, 12000 kPa, x2 = 0.7524): 639.39 ± 0.38 kg/m3 | mass density (362.93 K, 13000 kPa, x2 = 0.7524): 640.69 ± 0.39 kg/m3 | mass density (362.93 K, 14000 kPa, x2 = 0.7524): 641.96 ± 0.4 kg/m3 | mass density (362.93 K, 15000 kPa, x2 = 0.7524): 643.24 ± 0.41 kg/m3 | mass density (362.93 K, 16000 kPa, x2 = 0.7524): 644.37 ± 0.42 kg/m3 | mass density (362.93 K, 17000 kPa, x2 = 0.7524): 645.56 ± 0.43 kg/m3 | mass density (362.93 K, 18000 kPa, x2 = 0.7524): 646.73 ± 0.44 kg/m3 | mass density (362.93 K, 19000 kPa, x2 = 0.7524): 647.87 ± 0.45 kg/m3 | mass density (362.93 K, 20000 kPa, x2 = 0.7524): 649 ± 0.46 kg/m3 | mass density (362.93 K, 21000 kPa, x2 = 0.7524): 650.11 ± 0.47 kg/m3 | mass density (362.93 K, 22000 kPa, x2 = 0.7524): 651.2 ± 0.48 kg/m3 | mass density (362.93 K, 23000 kPa, x2 = 0.7524): 652.27 ± 0.49 kg/m3 | mass density (362.93 K, 24000 kPa, x2 = 0.7524): 653.3 ± 0.51 kg/m3 | mass density (362.93 K, 25000 kPa, x2 = 0.7524): 654.33 ± 0.52 kg/m3 | mass density (362.94 K, 1000 kPa, x2 = 0.4968): 646.01 ± 0.28 kg/m3 | mass density (362.94 K, 2000 kPa, x2 = 0.4968): 647.42 ± 0.28 kg/m3 | mass density (362.94 K, 3000 kPa, x2 = 0.4968): 648.86 ± 0.29 kg/m3
